Results reported in PMC8373216, “Development and Preclinical Evaluation of New Inhaled Lipoglycopeptides for the Treatment of Persistent Pulmonary Methicillin-Resistant Staphylococcus aureus Infections” (Antimicrobial Agents and Chemotherapy, 2021).
Values after ≈ are worked out from the molar mass of the structure shown.

Legend:
MSSA ATCC 29213 = experiment: In-house broth microdilution MIC screening; assay type: cell-based; conditions: Staphylococcus aureus; broth microdilution; read-out: MIC Value, MSSA ATCC 29213
[1] = tested on: MRSA ATCC BAA 1556 (USA300); experiment: In-house broth microdilution MIC screening; assay type: cell-based, Staphylococcus aureus; conditions: Staphylococcus aureus; broth microdilution; read-out: MIC Value, MRSA ATCC BAA 1556

MIC (MSSA ATCC 29213) [µg/mL]	MIC [1] [µg/mL]	SMILES
> 128	> 128	CNC(CC(C)C)C(=O)NC1C(=O)NC(CC(N)=O)C(=O)NC2C(=O)NC3C(=O)NC(C(=O)NC(C(=O)O)c4cc(O)cc(O)c4-c4cc3ccc4O)C(O)c3ccc(c(Cl)c3)Oc3cc2cc(c3OC2OC(CO)C(O)C(O)C2OC2CC(C)(NCC(=O)O)C(O)C(C)O2)Oc2ccc(cc2Cl)C1O (stereo not shown) [RV101]
0.25 (≈ 0.154 µM)	0.25 (≈ 0.154 µM)	CCCCCCCCNC(=O)CNC1(C)CC(OC2C(Oc3c4cc5cc3Oc3ccc(cc3Cl)C(O)C3NC(=O)C(NC(=O)C5NC(=O)C(CC(N)=O)NC(=O)C(NC(=O)C(CC(C)C)NC)C(O)c5ccc(c(Cl)c5)O4)c4ccc(O)c(c4)-c4c(O)cc(O)cc4C(C(=O)O)NC3=O)OC(CO)C(O)C2O)OC(C)C1O (stereo not shown) [RV121]
0.5 (≈ 0.309 µM)	0.75 (≈ 0.463 µM)	CCCCCCCCOC(=O)CNC1(C)CC(OC2C(Oc3c4cc5cc3Oc3ccc(cc3Cl)C(O)C3NC(=O)C(NC(=O)C5NC(=O)C(CC(N)=O)NC(=O)C(NC(=O)C(CC(C)C)NC)C(O)c5ccc(c(Cl)c5)O4)c4ccc(O)c(c4)-c4c(O)cc(O)cc4C(C(=O)O)NC3=O)OC(CO)C(O)C2O)OC(C)C1O (stereo not shown) [RV124]
2 (≈ 1.19 µM)	2 (≈ 1.19 µM)	CCCCCCCCCCCCOC(=O)CNC1(C)CC(OC2C(Oc3c4cc5cc3Oc3ccc(cc3Cl)C(O)C3NC(=O)C(NC(=O)C5NC(=O)C(CC(N)=O)NC(=O)C(NC(=O)C(CC(C)C)NC)C(O)c5ccc(c(Cl)c5)O4)c4ccc(O)c(c4)-c4c(O)cc(O)cc4C(C(=O)O)NC3=O)OC(CO)C(O)C2O)OC(C)C1O (stereo not shown) [RV126]
4 (≈ 2.35 µM)	4 (≈ 2.35 µM)	CCCCCCCCCCCCCCOC(=O)CNC1(C)CC(OC2C(Oc3c4cc5cc3Oc3ccc(cc3Cl)C(O)C3NC(=O)C(NC(=O)C5NC(=O)C(CC(N)=O)NC(=O)C(NC(=O)C(CC(C)C)NC)C(O)c5ccc(c(Cl)c5)O4)c4ccc(O)c(c4)-c4c(O)cc(O)cc4C(C(=O)O)NC3=O)OC(CO)C(O)C2O)OC(C)C1O (stereo not shown) [RV127]
1 (≈ 0.577 µM)	1 (≈ 0.577 µM)	CCCCCCCCCCCCCCCCOC(=O)CNC1(C)CC(OC2C(Oc3c4cc5cc3Oc3ccc(cc3Cl)C(O)C3NC(=O)C(NC(=O)C5NC(=O)C(CC(N)=O)NC(=O)C(NC(=O)C(CC(C)C)NC)C(O)c5ccc(c(Cl)c5)O4)c4ccc(O)c(c4)-c4c(O)cc(O)cc4C(C(=O)O)NC3=O)OC(CO)C(O)C2O)OC(C)C1O (stereo not shown) [RV128]
0.125 (≈ 0.0734 µM)	0.25 (≈ 0.147 µM)	CCCCCCCCCCCCCCNC(=O)CNC1(C)CC(OC2C(Oc3c4cc5cc3Oc3ccc(cc3Cl)C(O)C3NC(=O)C(NC(=O)C5NC(=O)C(CC(N)=O)NC(=O)C(NC(=O)C(CC(C)C)NC)C(O)c5ccc(c(Cl)c5)O4)c4ccc(O)c(c4)-c4c(O)cc(O)cc4C(C(=O)O)NC3=O)OC(CO)C(O)C2O)OC(C)C1O (stereo not shown) [RV130]
4 (≈ 2.31 µM)	4 (≈ 2.31 µM)	CCCCCCCCCCCCCCCCNC(=O)CNC1(C)CC(OC2C(Oc3c4cc5cc3Oc3ccc(cc3Cl)C(O)C3NC(=O)C(NC(=O)C5NC(=O)C(CC(N)=O)NC(=O)C(NC(=O)C(CC(C)C)NC)C(O)c5ccc(c(Cl)c5)O4)c4ccc(O)c(c4)-c4c(O)cc(O)cc4C(C(=O)O)NC3=O)OC(CO)C(O)C2O)OC(C)C1O (stereo not shown) [RV131]
